Consider 11 compounds from ChEMBL document CHEMBL1138818, “Design and synthesis of cyclic urea compounds: a pharmacological study for retinoidal activity” (2004).

The source made the active and inactive calls. No cut-off for these calls is given here.

In one test the test system is HL-60. Nature of the test: Effective concentration required for induction of differentiation of HL-60 cells into mature granulocytes. The settings on record: Homo sapiens, read-out: ED50 (the source's name). The format is functional.
In the case of `CC1(C)CCC(C)(C)c2cc(NC(=O)c3ccc(C(=O)O)cc3)ccc21` [TAMIBAROTENE], the EC50 was found to be 0.8 nM. As to `CC(C)(C)c1cc(N2CCN(c3ccc(C(=O)O)cc3)C2=O)cc(C(C)(C)C)c1`, the EC50 was determined as 8.3 nM. Consider `CC(C)(C)c1cc(N2CCCN(c3ccc(C(=O)O)cc3)C2=O)cc(C(C)(C)C)c1`, for which the EC50 was found to be 490 nM. On the same count and under the same terms, the value for `CC1(C)CCC(C)(C)c2cc(N3CCN(c4ccc(C(=O)O)cc4)C3=O)ccc21` was 120 nM.

Take `CC1=C(/C=C/C(C)=C/C=C/C(C)=C/C(=O)O)C(C)(C)CCC1` [TRETINOIN]: the EC50 was 2.4 nM.

The next test has as its system HL-60. Nature of the test: Effective concentration required for induction of differentiation of HL-60 cells into mature granulocytes. IA = No activity at E-6. Format: functional, cell-based. The settings on record: Homo sapiens.
Turning to `CC(C)(C)c1ccc(N2CCCN(c3ccc(C(=O)O)cc3)C2=O)cc1`, the ED50 entry is “inactive”. Same read-out and setting: as for `O=C(O)c1ccc(N2CCN(c3ccccc3)C2=O)cc1`, the entry is “inactive”. On the same count and under the same terms, the value for `CC(C)(C)c1ccc(N2CCN(c3ccc(C(=O)O)cc3)C2=O)cc1` was “inactive”. The same measure, in the same setting: the value for `CC1(C)CCC(C)(C)c2cc(N3CCCN(c4ccc(C(=O)O)cc4)C3=O)ccc21` was “inactive”; that for `O=C(O)c1ccc(N2CCCN(c3ccccc3)C2=O)cc1` was “inactive”.

The next test has as its system HL-60. Nature of the test: Effective concentration required for induction of differentiation of HL-60 cells into mature granulocytes.( >10e-6= slight activity at 10e-6). Format: functional. The settings on record: Homo sapiens, read-out: ED50 (the source's name).
For `CC1(C)CCC(C)(C)c2cc(NC(=O)Nc3ccc(C(=O)O)cc3)ccc21`, the EC50 was more than 10000 nM.
